Laboratory results taken from ChEMBL document CHEMBL1153819, “Use of acetylcholine binding protein in the search for novel alpha7 nicotinic receptor ligands. In silico docking, pharmacological screening, and X-ray analysis” (J Med Chem, 2009).
The source made the active and inactive calls. No cut-off for these calls is given here.

Columns and labels:
[1] = target: Acetylcholine-binding protein (Lymnaea stagnalis, UniProt P58154); assay: Displacement of [125I]alpha-bungarotoxin from Lymnaea stagnalis His-tagged AchBP
Acetylcholine-binding protein, sequence (P58154 whole entry): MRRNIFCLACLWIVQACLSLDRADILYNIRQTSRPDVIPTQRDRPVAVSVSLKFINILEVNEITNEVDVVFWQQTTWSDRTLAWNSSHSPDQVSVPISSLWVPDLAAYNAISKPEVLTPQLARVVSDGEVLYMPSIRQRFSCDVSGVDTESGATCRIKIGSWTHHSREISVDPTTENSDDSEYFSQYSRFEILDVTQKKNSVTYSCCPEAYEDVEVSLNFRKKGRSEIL

[2] = target: T1, Neuronal acetylcholine receptor subunit alpha-7 (Homo sapiens, UniProt P36544); assay: Binding affinity to human alpha7 nAChR allosteric site assessed as decrease in bungarotoxin Bmax at 100 uM by [125I]alpha-bungarotoxin saturation binding experiment
T1 sequence (P36544 whole entry): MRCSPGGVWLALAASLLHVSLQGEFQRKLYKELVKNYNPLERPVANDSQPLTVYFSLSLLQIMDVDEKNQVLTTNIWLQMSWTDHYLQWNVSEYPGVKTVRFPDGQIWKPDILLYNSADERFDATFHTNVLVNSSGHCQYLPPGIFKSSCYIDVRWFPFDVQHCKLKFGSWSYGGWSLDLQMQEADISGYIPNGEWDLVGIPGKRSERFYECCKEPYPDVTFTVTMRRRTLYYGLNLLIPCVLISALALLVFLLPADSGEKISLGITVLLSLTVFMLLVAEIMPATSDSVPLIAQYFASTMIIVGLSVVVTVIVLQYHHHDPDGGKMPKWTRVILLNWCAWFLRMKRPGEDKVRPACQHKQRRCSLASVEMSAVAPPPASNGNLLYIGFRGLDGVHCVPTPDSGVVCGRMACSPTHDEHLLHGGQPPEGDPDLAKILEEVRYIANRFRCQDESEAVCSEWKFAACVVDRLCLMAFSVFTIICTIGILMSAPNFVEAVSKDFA

[3] = target: T2, 5-hydroxytryptamine receptor 3A (Homo sapiens) (UniProt P46098); assay: Inhibition of human 5HT3A receptor
T2 sequence (whole entry): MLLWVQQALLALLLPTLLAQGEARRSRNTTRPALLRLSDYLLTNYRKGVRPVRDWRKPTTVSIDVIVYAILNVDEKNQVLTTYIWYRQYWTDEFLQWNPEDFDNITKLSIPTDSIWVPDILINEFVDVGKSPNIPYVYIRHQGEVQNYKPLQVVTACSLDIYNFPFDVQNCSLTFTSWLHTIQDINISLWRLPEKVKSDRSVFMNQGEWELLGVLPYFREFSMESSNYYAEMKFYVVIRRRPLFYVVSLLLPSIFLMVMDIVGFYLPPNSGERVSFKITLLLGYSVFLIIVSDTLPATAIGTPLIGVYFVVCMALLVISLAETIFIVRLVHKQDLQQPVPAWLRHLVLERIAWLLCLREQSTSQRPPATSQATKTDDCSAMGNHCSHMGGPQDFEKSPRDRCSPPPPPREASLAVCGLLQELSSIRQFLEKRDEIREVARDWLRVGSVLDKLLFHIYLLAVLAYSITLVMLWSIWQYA

[4] = target: T3, Neuronal acetylcholine receptor; alpha4/beta2 (Homo sapiens, UniProt P17787+P43681); assay: Activity at human alpha4beta2 nAChR expressed in Xenopus oocytes assessed as inhibition of acetylcholine-evoked current; assay type: cell-based, Oocyte; details: for Activity: Oocyte
T3 sequence (P17787 whole entry): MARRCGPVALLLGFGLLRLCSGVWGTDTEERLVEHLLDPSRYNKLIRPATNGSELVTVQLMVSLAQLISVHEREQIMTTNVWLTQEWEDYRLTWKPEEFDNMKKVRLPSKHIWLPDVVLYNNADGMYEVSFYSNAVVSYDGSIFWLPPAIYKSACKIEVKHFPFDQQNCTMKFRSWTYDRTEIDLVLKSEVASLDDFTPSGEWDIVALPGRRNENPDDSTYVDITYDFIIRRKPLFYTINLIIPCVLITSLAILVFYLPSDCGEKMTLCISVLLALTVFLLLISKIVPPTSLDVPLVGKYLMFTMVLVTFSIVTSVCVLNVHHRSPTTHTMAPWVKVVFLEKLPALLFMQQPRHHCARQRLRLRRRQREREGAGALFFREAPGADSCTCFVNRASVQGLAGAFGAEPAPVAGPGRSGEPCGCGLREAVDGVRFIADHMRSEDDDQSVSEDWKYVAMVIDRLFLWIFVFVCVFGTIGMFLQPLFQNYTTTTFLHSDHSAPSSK
T3 sequence (P43681 whole entry): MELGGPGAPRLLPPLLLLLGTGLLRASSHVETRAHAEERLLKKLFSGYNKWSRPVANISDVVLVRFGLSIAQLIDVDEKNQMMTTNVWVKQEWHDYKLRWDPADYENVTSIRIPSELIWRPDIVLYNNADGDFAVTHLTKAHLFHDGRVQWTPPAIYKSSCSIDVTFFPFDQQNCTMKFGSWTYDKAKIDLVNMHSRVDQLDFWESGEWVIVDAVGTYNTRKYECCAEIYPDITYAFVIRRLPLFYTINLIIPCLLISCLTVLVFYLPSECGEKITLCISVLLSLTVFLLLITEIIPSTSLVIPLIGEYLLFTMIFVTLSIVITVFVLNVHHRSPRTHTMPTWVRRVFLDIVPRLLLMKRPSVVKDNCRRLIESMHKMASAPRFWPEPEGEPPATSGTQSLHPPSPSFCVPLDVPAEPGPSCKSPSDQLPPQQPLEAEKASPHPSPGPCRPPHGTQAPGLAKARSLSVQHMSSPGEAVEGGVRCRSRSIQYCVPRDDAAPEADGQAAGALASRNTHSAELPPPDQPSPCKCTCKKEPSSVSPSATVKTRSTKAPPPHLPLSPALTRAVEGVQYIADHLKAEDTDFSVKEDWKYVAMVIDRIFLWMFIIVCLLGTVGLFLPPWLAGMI

[5] = target: T1, Neuronal acetylcholine receptor subunit alpha-7; assay: Displacement of [125I]alpha-bungarotoxin from human alpha7 nAChR expressed in human SH-SY5Y cells; assay type: cell-based
[6] = target: T3, Neuronal acetylcholine receptor; alpha4/beta2; assay: Displacement of [3H]epibatidine from human alpha4beta2 nAChR expressed in HEK293t cells; assay type: cell-based; details: HEK-293T
[7] = target: T1, Neuronal acetylcholine receptor subunit alpha-7; assay: Activity at human alpha7 nAChR expressed in Xenopus oocytes assessed as inhibition of acetylcholine-evoked current; assay type: cell-based, Oocyte; details: for Activity: Oocyte
[8] = Displacement of [3H]epibatidine from Aplysia californica AchBP
[9] = target: T1, Neuronal acetylcholine receptor subunit alpha-7; assay: Binding affinity to human alpha7 nAChR allosteric site assessed as increase in bungarotoxin Kd at 100 uM by [125I]alpha-bungarotoxin saturation binding experiment

`Cc1cccc2c1CCc1ccccc1C2OC1CC2CCC(C1)N2C` (centres undefined) gave a Ki [1] of 0.316 µM.

In the case of `CCN1C2CCC1CC(OC1c3ccccc3CCc3ccccc31)C2` (centres undefined), the Ki [1] is reported as 0.126 µM.

With `c1ccc2c(c1)CCc1ccccc1C2OC1CC2CCC(C1)N2` (centres undefined) the Ki [1] was 0.316 µM.

For `C[N+]1(C)C2CCC1CC(OC1c3ccccc3CCc3ccccc31)C2` (centres undefined), the Activity [2] was “Active”, the Activity [3] was “Active” and the IC50 [4] was 0.21 µM. For the same compound, the Activity [4] was “Dose-dependent effect”, the Ki [5] was 2 µM and the Ki [1] was 0.0631 µM. The Activity [6] was “inactive”, the IC50 [7] was 0.88 µM and the Activity [7] was “Dose-dependent effect”.

`c1ccc2c(c1)CCc1ccccc1C2OC1CCNCC1` showed a Ki [1] of 3.16 µM.

Work on `CC(=O)OCC[N+](C)(C)C` [ACETYLCHOLINE] yielded a Ki [1] of 3.16 µM.

For `N=C(CCN1C2CCC1CC(OC1c3ccccc3CCc3ccccc31)C2)NO` (centres undefined), the Ki [1] was 1.26 µM.

With `CCCN1CCC(OC2c3ccccc3CCc3ccccc32)CC1` the Ki [1] was 0.631 µM.

Compound `N#CCCN1C2CCC1CC(OC1c3ccccc3CCc3ccccc31)C2` (centres undefined) has a Ki [1] of 1 µM.

Work on `NC(N)=NCCN1C2CCC1CC(OC1c3ccccc3CCc3ccccc31)C2` (centres undefined) yielded a Ki [1] of 0.501 µM.

With `CN1C2CCC1CC(OC(=O)COC1c3ccccc3CCc3ccccc31)C2` (centres undefined) the Ki [1] was 0.1 µM.

In the case of `CN1CCC[C@H]1c1cccnc1` [NICOTINE], the pKi [8] is reported as 6.4.

With `c1ccc(CN2C3CCC2CC(OC2c4ccccc4CCc4ccccc42)C3)cc1` (centres undefined) the Activity [2] was “Active”, the Activity [3] was “Active” and the IC50 [4] was 0.46 µM. The Activity [4] was “Dose-dependent effect”, the Activity [9] was “Active” and the Ki [5] was 12.6 µM. The Ki [1] was 0.1 µM, the pKi [8] was 6 and the Activity [6] was “inactive”. The IC50 [7] was 1.73 µM and the Activity [7] was “Dose-dependent effect”.

For `CN1CCC(OC2c3ccccc3CCc3ccccc32)CC1` [HEPZIDINE], the Ki [1] was 1.58 µM.

`CN1[C@@H]2CC[C@H]1C[C@@H](OC1c3ccccc3CCc3ccccc31)C2` [DEPTROPINE] showed a Ki [1] of 0.398 µM.

Compound `Cc1ccc2c(c1)C(OC1CC3CCC(C1)N3C)c1ccccc1CC2` (centres undefined) has a Ki [1] of 0.126 µM.
